Patent US4857530A, “Substituted quinazolinones as anticancer agents” (Warner-Lambert Company, priority 1987, dated 1989)

Tests used:
[1] = tested on: ovarian and breast cancer; conditions: cited from earlier work
[2] = cited from earlier work
TS = conditions: cited from earlier work
[3] = tested on: L1210 murine leukemia cell line; assay: growth inhibition of L1210 murine leukemia cell line in vitro; assay type: cell-based; conditions: Mus musculus, L1210, 72 h
Description: The compounds of formula I were also tested against the L1210 murine leukemia cell line in vitro.
A cell culture of the L1210 murine leukemia cell line is grown in RPMI 1640 culture medium supplemented with 5% fetal bovine serum containing gentamicin (50 micrograms per milliliter). Dilutions of the test compound are prepared in the appropriate solvent and 20 microliters of each dilution are added to a 24-well Linbro tissue culture plate, followed by the addition of 2.0 ml of cell suspension containing 3×10^4 cells/milliliter. Solvent and medium controls are included in each test.
After incubation at 37° C. for three days in 5% CO2, the contents of each well are removed and the cells are counted in a ZBI Coulter counter.

[4] = target: T1, Thymidylate synthase isolated from L1210 murine leukemia cells (Mus musculus, UniProt P07607); assay: inhibition of thymidylate synthase (tritium release assay); assay type: biochemical; conditions: 50 μ molar deoxyuridine, 100 μmolar 5,10-methylene-tetrahydrofolate
T1 construct: endogenous in cells
T1 sequence (P07607 whole entry): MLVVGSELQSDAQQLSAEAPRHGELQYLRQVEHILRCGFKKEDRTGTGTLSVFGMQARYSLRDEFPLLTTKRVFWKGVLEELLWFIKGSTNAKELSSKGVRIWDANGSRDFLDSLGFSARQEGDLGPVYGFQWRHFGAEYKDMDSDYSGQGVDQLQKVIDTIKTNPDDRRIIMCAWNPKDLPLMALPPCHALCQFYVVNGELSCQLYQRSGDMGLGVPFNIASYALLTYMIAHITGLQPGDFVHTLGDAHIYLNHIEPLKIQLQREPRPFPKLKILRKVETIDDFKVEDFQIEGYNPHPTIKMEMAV
Description: The compounds of formula I are valuable anticancer agents. The tests employed indicate that compounds of formula I inhibit the enzyme thymidylate synthase. Thymidylate synthase catalyzes the methylation of deoxyuridine monophosphate to thymidine monophosphate and therefore plays a key role in the synthesis of the only nucleotide required exclusively for deoxyribonucleic acid (DNA) synthesis. […] Thus, the compounds of formula I were tested for their ability to inhibit thymidylate synthase. […] Inhibition of thymidylate synthetase by the new quinazoline antifolate CB3717: enzyme purification and kinetics. In: […]., Simmonds, H. A., Muller, M. M. (eds.) "Purine metabolism in man, IV part B. Biochemical, immunological and cancer research." Plenum Publishing Corp., New York, 1984, pp. 375-378. Thymidylate synthase enzyme activity was determined by the tritium release assay method described by Roberts, Biochemistry, 5:3546-3548 (1966).

[5] = tested on: cells made resistant to the classical DHFR inhibitor methotrexate; conditions: cited from earlier work

Row | IC50 [3] | IC50 [4] | SMILES | further results
1 | > 20 µM | 0.64 µM | C#CCN(Cc1ccc2nc(N)[nH]c(=O)c2c1)c1ccc(C(N)=O)cc1 [Example 2d, 4-[[(2-Amino-3,4-dihydro-4-oxo-6-quinazolinyl)methyl]-2-propynylamino]benzamide] | –
2 | – | 11.5 µM | C#CCN(Cc1ccc2nc(N)[nH]c(=O)c2c1)c1ccc(F)cc1 [Example 2f, 2-Amino-6-[[(4-fluorophenyl)-2-propynylamino]methyl]-4(3H)-quinazolinone] | –
3 | 2.4 µM | 0.62 µM | C#CCN(Cc1ccc2nc(N)[nH]c(=O)c2c1)c1ccc([N+](=O)[O-])cc1 [Example 2i, 2-Amino-6-[[(4-nitrophenyl)-2-propynylamino]methyl]-4(3H)-quinazolinone] | –
4 | 4.3 µM | 0.77 µM | C#CCN(Cc1ccc2nc(N)[nH]c(=O)c2c1)c1ccc(C(C)=O)cc1 [Example 2j, 6-[[(4-Acetylphenyl)-2-propynylamino]methyl]-2-amino-4(3H)-quinazolinone] | –
5 | 11.8 µM | 0.51 µM | C#CCN(Cc1ccc2nc(N)[nH]c(=O)c2c1)c1ccc(C(=O)C(F)(F)F)cc1 [Example 2k, 2-Amino-6-[[2-propynyl[4-(trifluoroacetyl)phenyl]amino]methyl]-4(3H)-quinazolinone] | –

More lines, now with the values behind:

Row | SMILES | IC50 [3] | IC50 [4] | further results
6 | C#CCN(Cc1ccc2nc(N)nc(O)c2c1)c1ccc(C(=O)N[C@@H](CCC(=O)O)C(=O)O)cc1 [CB 3717, N-(4(N-((2-amino-4-hydroxy-6-quinazolinyl)methyl)prop-2-ynylamino)benzoyl)-L-glutamic acid] | – | – | liver toxicity ([1]; Phase I clinical trials): nondose related liver toxicity; kidney toxicity ([1]; Phase I clinical trials, due in part to poor solubility): dose limiting kidney toxicity; clinical responses ([1]; Phase I, patients with ovarian and breast cancer): Minor and partial clinical responses; solubility [2]: poor solubility; TS inhibition (in words) (TS; background): selective, tight binding TS inhibitor
7 | C#CCN(Cc1ccc2nc[nH]c(=O)c2c1)c1ccc(C(C)=O)cc1 [Example 2, 6-[[(4-Acetylphenyl)-2-propynylamino]methyl]-4(3H)-quinazolinone] | 7 µM | 2.4 µM | –
8 | C#CCN(Cc1ccc2nc[nH]c(=O)c2c1)c1ccc(Cl)c(Cl)c1 [Example 2a, 6-[[(3,4-Dichlorophenyl)-2-propynylamino]methyl]-4(3H)-quinazolinone] | 4 µM | 11 µM | –
9 | C#CCN(Cc1ccc2nc[nH]c(=O)c2c1)c1cc(OC)c(OC)c(OC)c1 [Example 2c, 6-[[2-Propynyl-(3,4,5-trimethoxyphenyl)amino]methyl]-4(3H)-quinazolinone] | > 10 µM | 96 µM | –
10 | C#CCN(Cc1ccc2nc(N)[nH]c(=O)c2c1)c1ccc(C#N)cc1 [Example 2e, 4-[[(2-Amino-3,4-dihydro-4-oxo-6-quinazolinyl)methyl]-2-propynylamino]benzonitrile] | 5.9 µM | 1.3 µM | –
11 | C#CCN(Cc1ccc2nc(N)nc(O)c2c1)c1ccc(Cl)c(Cl)c1 [Example 2g, 2-Amino-6-[[(3,4-Dichlorophenyl)-2-propynylamino]methyl]-4(3H)-quinazolinone] | 12.6 µM | 5 µM | –
12 | C#CCN(Cc1ccc2nc(N)[nH]c(=O)c2c1)c1ccc(OC(F)(F)F)cc1 [Example 2h, 2-Amino-6-[[2-propynyl[4-(trifluoromethoxy)phenyl]amino]methyl]-4(3H)-quinazolinone] | 25.1 µM | 11.3 µM | –
13 | C#CCN(Cc1ccc2nc(N)nc(O)c2c1)c1cc(OC)c(OC)c(OC)c1 [Example 2l, 2-Amino-6-[[2-propynyl(3,4,5-trimethoxyphenyl)amino]methyl]-4(3H)-quinazolinone] | > 20 µM | 50 µM | –
14 | C#CCN(Cc1ccc2nc(N)[nH]c(=O)c2c1)c1ccc(S(=O)(=O)N(C)C)cc1 [Example 2n, 4-[[(2-Amino-3,4-dihydro-4-oxo-6-quinazolinyl)methyl]-2-propynylamino]-N,N-dimethylbenzenesulfonamide] | 4.1 µM | 1 µM | –
15 | C#CCN(Cc1ccc2nc(N)[nH]c(=O)c2c1)c1ccc(C(=O)O)cc1 [formula A; R=OH] | – | – | decrease of TS inhibition over the classical antifolate analog on removal of the glutamate residue (TS; Jones et al, J. Med. Chem. 29, 1114-1118 (1986)): 84 fold
16 | COc1cc(NCc2ccc3nc(N)nc(N)c3c2C)cc(OC)c1OC [trimetrexate] | – | – | circumvention of impaired transport resistance [5]: shown to circumvent the impaired transport
